# Assay results taken from patent publication US20070178581A1, “Screening method and apparatus for identifying a reactive compound bonding with a target compound” (SHIMADZU CORPORATION, priority 2006, published 2007).
# System: WGA (wheat germ lectin)
# Assay: Bonding of reactive compound with WGA, analysed by elution from the size-excluding first dimension column
# Assay type: binding
# Details: 50 mM phosphoric acid buffer pH 6.8/0.8% NaCl, 25° C.
# Method: FIGS. 8A and 8B show the results of the analysis of the components eluted in the first dimension column in the example shown in FIG. 5. […] The sample used consisted of WGA (1 mg/mL) for the target compound or protein, and p-nitrophenyl-di-N-acetyl-β-chitobioside (0.1 mg/mL) for the reactive compounds. For the first dimension mobile phase, 50 mM phosphoric acid buffer (pH 6.8)/0.8% NaCl solution was used, which was fed at the rate of 0.05 mL/minute. For the first dimension column 10a, a silica-based size-excluding DIOL column (product of Shimadzu Corporation) of 150 mm in length and 2 mm in internal diameter was used, while setting the column oven temperature at 25° C. In the measurements that produced the chromatogram shown in FIG. 8B, 30 μL of WGA or protein was suctioned by the sample injection nozzle 32a, and then 5 μL of p-nitrophenyl-di-N-acetyl-β-chitobioside was suctioned, followed by the injection of the sample from the sample injection nozzle 32a into the sample injection port 8. In FIGS. 8A and 8B, the peaks indicated by the broken lines are the peaks obtained when p-nitrophenyl-di-N-acetyl-β-chitobioside alone was injected into the sample injection port. The peaks of p-nitrophenyl-di-N-acetyl-β-chitobioside appear in different locations in FIGS. 8A and Bbecause the scale on the horizontal axis differs, but the retention time is identical in both graphs.
smiles,measurement,setting,value
CC(=O)N[C@H]1[C@H](Oc2ccc([N+](=O)[O-])cc2)O[C@H](CO)[C@@H](O[C@@H]2O[C@H](CO)[C@@H](O)[C@H](O)[C@H]2NC(C)=O)[C@@H]1O [p-nitrophenyl-di-N-acetyl-β-chitobioside],bonding state with WGA judged from elution time (FIG. 8B),"reactive compound (5 μL) injected first, then WGA (30 μL), separately, reaction within the size-excluding column",shifted to the location of the elution time for WGA
same,bonding state with WGA judged from elution time (FIG. 8A),"target and reactive compound mixed beforehand and injected as a reaction solution, WGA 1 mg/mL, compound 0.1 mg/mL",has been dissociated from WGA
